We go through eight molecules from ChEMBL document CHEMBL1158441 (Bioorg Med Chem Lett, 2009).

The target in test [1] is Sphingosine kinase 1 (Homo sapiens, UniProt Q9NYA1). The experiment in a line: Inhibition of SphK1.
Test [2] addresses T1, Sphingosine kinase 2 (Homo sapiens, UniProt Q9NRA0).
T1 sequence (Q9NRA0 whole entry): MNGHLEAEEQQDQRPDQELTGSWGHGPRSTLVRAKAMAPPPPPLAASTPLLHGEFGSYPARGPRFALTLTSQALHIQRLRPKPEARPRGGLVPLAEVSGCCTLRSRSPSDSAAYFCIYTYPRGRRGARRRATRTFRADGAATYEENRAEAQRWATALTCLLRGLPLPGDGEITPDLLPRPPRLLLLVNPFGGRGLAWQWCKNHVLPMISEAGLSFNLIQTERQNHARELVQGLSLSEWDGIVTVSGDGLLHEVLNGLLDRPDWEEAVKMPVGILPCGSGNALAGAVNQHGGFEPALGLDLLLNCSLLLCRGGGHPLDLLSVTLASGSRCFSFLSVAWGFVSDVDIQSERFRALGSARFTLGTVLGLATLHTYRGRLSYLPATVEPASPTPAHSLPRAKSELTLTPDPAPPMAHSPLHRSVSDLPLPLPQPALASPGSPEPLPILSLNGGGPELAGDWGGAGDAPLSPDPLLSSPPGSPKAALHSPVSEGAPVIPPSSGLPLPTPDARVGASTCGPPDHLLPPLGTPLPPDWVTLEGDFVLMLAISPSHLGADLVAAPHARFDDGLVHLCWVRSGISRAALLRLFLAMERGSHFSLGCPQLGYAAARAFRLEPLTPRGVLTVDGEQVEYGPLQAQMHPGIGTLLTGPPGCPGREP
In words: Inhibition of SphK2.

Sphingosine kinase 1, sequence (Q9NYA1 whole entry): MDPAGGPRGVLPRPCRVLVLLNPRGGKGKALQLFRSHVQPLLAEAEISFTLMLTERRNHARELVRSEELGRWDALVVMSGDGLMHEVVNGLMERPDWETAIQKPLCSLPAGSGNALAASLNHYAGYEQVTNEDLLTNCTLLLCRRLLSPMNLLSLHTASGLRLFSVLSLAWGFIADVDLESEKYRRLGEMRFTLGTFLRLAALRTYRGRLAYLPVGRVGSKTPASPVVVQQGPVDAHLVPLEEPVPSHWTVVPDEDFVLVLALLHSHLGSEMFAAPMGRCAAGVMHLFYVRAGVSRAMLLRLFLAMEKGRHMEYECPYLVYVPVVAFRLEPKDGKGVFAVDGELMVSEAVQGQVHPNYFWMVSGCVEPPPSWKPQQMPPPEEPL

Consider `N[C@@H](CO)[C@H](O)/C=C/CCCCCCCCc1ccc(I)cc1`, for which the IC50 in test [1] was 0.5 µM; in test [2], 5.73 µM. For the molecule `CCCCCCCCCCCCC/C=C/[C@@H](O)[C@H](CO)N(C)C` [DIMETHYLSPINGOSINE], in test [2], the IC50 was greater than 80 µM. Take `N[C@@H](CO)[C@H](O)/C=C/CCCCCCc1ccc(I)cc1`: the results for the IC50 in test [1] and in test [2] were 3.96 µM and 7.23 µM, respectively. Taken in the same sequence, the figures for `N[C@@H](CO)[C@H](O)/C=C/CCCCCCCCCCCc1ccc(I)cc1` were 2.25 µM and 13.3 µM. The matching figures for `N[C@@H](CO)[C@H](O)/C=C/CCCCCCCCCCCCCc1ccc(I)cc1`: 3.98 µM and 29.2 µM.

For `N[C@@H](CO)[C@H](O)/C=C/CCCCCCCCCCc1ccc(I)cc1`, the IC50 was determined as 2.19 µM in test [1] and 4.38 µM in test [2]. `CCCCCCCCCCCCC/C=C/[C@@H](O)[C@@H](N)CO` [SPHINGOSINE] had a concentration for half-maximal inhibition (IC50) in test [2] of 1.56 µM.

With `N[C@@H](CO)[C@H](O)/C=C/CCCCCCCCCc1ccc(I)cc1`, the half-maximal inhibitory concentration (IC50) in test [1] is 2.78 µM; in test [2] it was 16.6 µM.
